The source of these data is US7973043B2, “Combination therapy for depression, prevention of suicide, and various medical and psychiatric conditions” (priority 2002, dated 2011).

The conditions of series [1]: before the X-ray changes; cited from earlier work.
The conditions of series [2]: cited from earlier work; for annual risk of TD as fraction of the risk associated with haloperidol: relative to haloperidol.
The conditions of series [3]: combined data from many studies; cited from earlier work.
Series [4] addresses D2 receptor (Homo sapiens, UniProt P14416). The conditions noted are these: relative to risperidone and olanzapine; cited from earlier work.
For series [5] the following is noted: antipsychotic alone; cited from earlier work.

The structures appear in SMILES notation.

Chain of D2 receptor (P14416 whole entry): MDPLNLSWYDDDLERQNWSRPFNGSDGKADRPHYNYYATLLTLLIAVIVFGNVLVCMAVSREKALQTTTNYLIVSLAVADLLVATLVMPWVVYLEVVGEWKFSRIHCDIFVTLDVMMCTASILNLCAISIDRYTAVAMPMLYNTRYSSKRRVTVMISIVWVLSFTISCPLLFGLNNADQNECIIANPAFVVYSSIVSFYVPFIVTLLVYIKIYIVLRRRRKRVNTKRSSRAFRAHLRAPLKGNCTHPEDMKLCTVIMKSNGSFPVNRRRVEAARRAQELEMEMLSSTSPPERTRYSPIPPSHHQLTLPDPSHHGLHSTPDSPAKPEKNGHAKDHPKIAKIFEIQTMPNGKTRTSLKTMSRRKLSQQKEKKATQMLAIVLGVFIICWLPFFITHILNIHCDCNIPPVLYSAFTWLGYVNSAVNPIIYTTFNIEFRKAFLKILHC

On to `N[C@@H]1CONC1=O` [DCS], for which the antidepressant effect result in series [1] is “prompt antidepressant effects”.

With `Cc1cc2c(s1)Nc1ccccc1N=C2N1CCN(C)CC1` [olanzapine], the “One year risk of TD” value in series [2] (all patients) was 0.52%. Further, the “annual risk of TD as fraction of the risk associated with haloperidol” value in series [2] is recorded as “about 1/12”. For the same compound, the “relative risk of drug-induced acute EPS in declining order” value (from here on “relative risk of drug-induced acute EPS”) in series [3] was “risperidone >ziprasidone >=olanzapine >quetiapine”.

Consider `OCCOCCN1CCN(C2=Nc3ccccc3Sc3ccccc32)CC1` [quetiapine], for which the “dissociation from the dopamine receptor” value in series [4] is reported as “fast dissociation”. Under “hypothetical cases”, the adverse effect entry is on record as “lightheadedness”. Moreover, where the note is “second hypothetical case, MDD, quetiapine 50 mg added to paroxetine 20 mg q d”, the “time until suicidality vanishes” value came out at 24 h. Further, the “relative risk of drug-induced acute EPS” value in series [3] is reported as “risperidone >ziprasidone >=olanzapine >quetiapine”.

For `Cc1nc2n(c(=O)c1CCN1CCC(c3noc4cc(F)ccc34)CC1)CCCC2` [risperidone], the “activity in the chronic mild stress (CMS) model” value in series [5] is on record as “ineffective”. Further, the “annual risk of TD as fraction of the risk associated with haloperidol” value in series [2] was “⅙”.

On to `O=C1Cc2cc(CCN3CCN(c4nsc5ccccc45)CC3)c(Cl)cc2N1` [ziprasidone], for which the “relative risk of drug-induced acute EPS” value in series [3] is “risperidone >ziprasidone >=olanzapine >quetiapine”.
